Where a name gives a salt, the structure may show the parent alone.
The molecules below were run on Acinetobacter baumannii ATCC17961 (assay: Antimicrobial susceptibility testing: 90% growth inhibitory concentration (IC90) determination). Conditions: 90% growth inhibitory concentration against Acinetobacter baumannii ATCC17961, Iso-Sensitest broth, OD 600 nm over 16 h; read-out: ATCC 17961 IC90.
Format: cell-based
How it was run: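 OD600 monitored each minute over 16 h at 35±2° C for bacteria (~5×10^5 CFU/mL final) in Iso-Sensitest medium with 10-point twofold compound series (e.g. 10-0.0195 μM final). Concentration giving 90% growth inhibition in log phase reported as IC90.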

Row | SMILES | IC90 [µM]
1 | Cn1c(-c2cn(-c3ccc(N)cn3)nc2C(F)(F)F)cnc1C(=O)Nc1ccc(C(=O)N2CCN(C(=O)CCC[N+](CCCCN)(CCCCN)CC(=O)O)CC2)c(Cl)c1 [Example 20, bis(4-aminobutyl)-[4-[4-[4-[[5-[1-(5-amino-2-pyridyl)-3-(trifluoromethyl)pyrazol-4-yl]-1-methyl-imidazole-2-carbonyl]amino]-2-chloro-benzoyl]piperazino]-4-keto-butyl]-(carboxymethyl)ammonium. 1:1 2,2,2-trifluoroacetic acid. 1:1 2,2,2-trifluoroacetate] | 0.3

Same assay, conditions: Acinetobacter baumannii, ATCC17961, 16 h, 90% growth inhibitory concentration against Acinetobacter baumannii ATCC17961, Iso-Sensitest broth, OD 600 nm over 16 h; read-out: ATCC 17961 IC90

Row | SMILES | IC90 [µM]
2 | Cn1c(-c2cn(-c3ccc(N4CCOCC4)cn3)nc2C(F)(F)F)cnc1C(=O)Nc1ccc(C(=O)N2CCN(C(=O)C3CC[N+](CC(=O)O)(CC4CNC4)CC3)CC2)c(Cl)c1 (stereo not drawn) [Example 26, 2-[1-(azetidin-3-ylmethyl)-4-[4-[2-chloro-4-[[1-methyl-5-[1-(5-morpholino-2-pyridyl)-3-(trifluoromethyl)pyrazol-4-yl]imidazole-2-carbonyl]amino]benzoyl]piperazine-1-carbonyl]piperidin-1-ium-1-yl]acetic acid. 1:1 formate] | 0.36
3 | Cn1c(-c2cn(-c3sncc3N)nc2C(F)(F)F)cnc1C(=O)Nc1ccc(C(=O)N2CCN(C(=O)C3CC[N+](CC(=O)O)(CC4CNC4)CC3)CC2)c(Cl)c1 (stereo not drawn) [Example 94, 2-[4-[4-[4-[[5-[1-(4-Aminoisothiazol-5-yl)-3-(trifluoromethyl)pyrazol-4-yl]-1-methyl-imidazole-2-carbonyl]amino]-2-chloro-benzoyl]piperazine-1-carbonyl]-1-(azetidin-3-ylmethyl)piperidin-1-ium-1-yl]acetic Acid.1:1 formate] | 1.73
4 | Cn1c(-c2cn(-c3cc4[nH]cc(C(=O)N5CC[C@H](O)C5)c4cn3)nc2C(F)(F)F)cnc1C(=O)Nc1ccc(C(=O)N2CCN(C(=O)[C@H]3CC[N@+](CC(=O)O)(CC4CNC4)CC3)CC2)c(Cl)c1 [Example 155, cis-2-[1-(azetidin-3-ylmethyl)-4-[4-[2-chloro-4-[[5-[1-[3-[(3S)-3-hydroxypyrrolidine-1-carbonyl]-1H-pyrrolo[3,2-c]pyridin-6-yl]-3-(trifluoromethyl)pyrazol-4-yl]-1-methyl-imidazole-2-carbonyl]amino]benzoyl]piperazine-1-carbonyl]piperidin-1-ium-1-yl]acetic acid. 1:1 2,2,2-trifluoroacetate] | 0.329
5 | Cn1c(-c2cn(-c3ccc(NCC4CCNCC4)cn3)nc2C(F)(F)F)cnc1C(=O)Nc1ccc(C(=O)N2CCN(C(=O)C3CC[N+](CC(=O)O)(CC4CNC4)CC3)CC2)c(Cl)c1 (stereo not drawn) [Example 5, 2-[1-(azetidin-3-ylmethyl)-4-[4-[2-chloro-4-[[1-methyl-5-[1-[5-(4-piperidylmethylamino)-2-pyridyl]-3-(trifluoromethyl)pyrazol-4-yl]imidazole-2-carbonyl]amino]benzoyl]piperazine-1-carbonyl]piperidin-1-ium-1-yl]acetic acid. 1:1 2,2,2-trifluoroacetate] | 0.59
6 | Cn1c(-c2cn(-c3ccc4[nH]ccc4n3)nc2C(F)(F)F)cnc1C(=O)Nc1ccc(C(=O)N2CCN(C(=O)CCC[N+](CCCN)(CCCN)CC(=O)O)CC2)c(Cl)c1 [Example 13, bis(3-aminopropyl)-(carboxymethyl)-[4-[4-[2-chloro-4-[[1-methyl-5-[1-(1H-pyrrolo[3,2-b]pyridin-5-yl)-3-(trifluoromethyl)pyrazol-4-yl]imidazole-2-carbonyl]amino]benzoyl]piperazino]-4-keto-butyl]ammonium. 1:1 2,2,2-trifluoroacetic acid. 1:1 2,2,2-trifluoroacetate] | 0.2
7 | Cn1c(-c2cn(-c3ccc(N)cn3)nc2C(F)(F)F)cnc1C(=O)Nc1ccc(C(=O)N2CCN(C(=O)CCC[N+](CCCN)(CCCN)CC(=O)O)CC2)c(Cl)c1 [Example 35, bis(3-aminopropyl)-[4-[4-[4-[[5-[1-(5-amino-2-pyridyl)-3-(trifluoromethyl)pyrazol-4-yl]-1-methyl-imidazole-2-carbonyl]amino]-2-chloro-benzoyl]piperazino]-4-keto-butyl]-(carboxymethyl)ammonium. 1:1 2,2,2-trifluoroacetic acid. 1:1 2,2,2-trifluoroacetate] | 0.4
8 | Cn1c(-c2cn(-c3n[nH]c4ccccc34)nc2C(F)(F)F)cnc1C(=O)Nc1ccc(C(=O)N2CCN(C(=O)C3CC[N+](CC(=O)O)(CC4CNC4)CC3)CC2)c(Cl)c1 (stereo not drawn) [Example 62, 2-[1-(azetidin-3-ylmethyl)-4-[4-[2-chloro-4-[[5-[1-(1H-indazol-3-yl)-3-(trifluoromethyl)pyrazol-4-yl]-1-methyl-imidazole-2-carbonyl]amino]benzoyl]piperazine-1-carbonyl]piperidin-1-ium-1-yl]acetic acid;formate] | 0.68
9 | COCCNc1ccc(-n2cc(-c3cnc(C(=O)Nc4ccc(C(=O)N5CCN(C(=O)[C@H]6CC[N@+](CC(=O)O)(CC7CNC7)CC6)CC5)c(C)c4)n3C)c(C(F)(F)F)n2)c(F)c1 [Example 111, cis-2-[1-(azetidin-3-ylmethyl)-4-[4-[4-[[5-[1-[2-fluoro-4-(2-methoxyethylamino)phenyl]-3-(trifluoromethyl)pyrazol-4-yl]-1-methyl-imidazole-2-carbonyl]amino]-2-methyl-benzoyl]piperazine-1-carbonyl]piperidin-1-ium-1-yl]acetic acid;2,2,2-trifluoroacetate] | 0.185
10 | Cn1c(-c2cn(-c3cc4[nH]ccc4cn3)nc2C(F)(F)F)cnc1C(=O)Nc1ccc(C(=O)N2CCN(C(=O)[C@H]3CC[N@+](CC(=O)O)(CC4CNC4)CC3)CC2)c(Cl)c1 [Example 14, cis-2-[1-(azetidin-3-ylmethyl)-4-[4-[2-chloro-4-[[1-methyl-5-[1-(1H-pyrrolo[3,2-c]pyridin-6-yl)-3-(trifluoromethyl)pyrazol-4-yl]imidazole-2-carbonyl]amino]benzoyl]piperazine-1-carbonyl]piperidin-1-ium-1-yl]acetic acid. 1:1 2,2,2-trifluoroacetate] | 0.2
11 | Cn1c(-c2cn(-c3ccc4c(n3)CCN4)nc2C(F)(F)F)cnc1C(=O)Nc1ccc(C(=O)N2CCN(C(=O)C3CC[N+](CC(=O)O)(CC4CNC4)CC3)CC2)c(Cl)c1 (stereo not drawn) [Example 61, 2-[1-(azetidin-3-ylmethyl)-4-[4-[2-chloro-4-[[5-[1-(2,3-dihydro-1H-pyrrolo[3,2-b]pyridin-5-yl)-3-(trifluoromethyl)pyrazol-4-yl]-1-methyl-imidazole-2-carbonyl]amino]benzoyl]piperazine-1-carbonyl]piperidin-1-ium-1-yl]acetic acid. 1:1 2,2,2-trifluoroacetate] | 0.67
12 | Cn1c(-c2cn(-c3cc4[nH]c(C(=O)NCC(O)C(F)(F)F)cc4cn3)nc2C(F)(F)F)cnc1C(=O)Nc1ccc(C(=O)N2CCN(C(=O)[C@H]3CC[N@+](CC(=O)O)(CC4CNC4)CC3)CC2)c(Cl)c1 (stereo partly drawn) [Example 117, cis-2-[1-(azetidin-3-ylmethyl)-4-[4-[2-chloro-4-[[1-methyl-5-[1-[2-[(3,3,3-trifluoro-2-hydroxy-propyl)carbamoyl]-1H-pyrrolo[3,2-c]pyridin-6-yl]-3-(trifluoromethyl)pyrazol-4-yl]imidazole-2-carbonyl]amino]benzoyl]piperazine-1-carbonyl]piperidin-1-ium-1-yl]acetic acid. 1:1 2,2,2-trifluoroacetate] | 0.215
